Measurements from PubChem BioAssay (NCI).
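Results reflect a 48-hour exposure of cells in 96-well plates to compound at five concentrations. GI50: concentration for 50% inhibition of growth. Definition used: TGI = concentration required for complete inhibition of growth.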

Experiments:
Assay in all cases: DTP human tumour cell line panel, 48 h
[1] = tested on: OVCAR-5 ovarian
[2] = tested on: HCT-116 colon
[3] = tested on: MCF7 breast
[4] = tested on: UO-31 renal
[5] = tested on: HL-60(TB) leukemia
[6] = tested on: 786-0 renal
[7] = tested on: HT29 colon
[8] = tested on: U251 CNS
[9] = tested on: OVCAR-4 ovarian
[10] = tested on: SK-OV-3 ovarian

Row | SMILES | GI50 [1] | TGI [1] | GI50 [2] | TGI [2] | GI50 [3] | TGI [3] | GI50 [4] | TGI [4] | GI50 [5] | TGI [5] | GI50 [6] | TGI [6] | GI50 [7] | TGI [7] | GI50 [8] | TGI [8] | GI50 [9] | TGI [9] | GI50 [10] | TGI [10]
1 | CN1CCN(CCCOc2ccc3nc(Nc4ccc(F)c(F)c4)ccc3c2)CC1 | 2.26 µM | 5.62 µM | 1.49 µM | 3.17 µM | 1.66 µM | 3.53 µM | 1.68 µM | 3.43 µM | 1.26 µM | 4.2 µM | 1.62 µM | 3.3 µM | 0.822 µM | 2.32 µM | 1.69 µM | 3.64 µM | 2.84 µM | 14.9 µM | 2.59 µM | 6.9 µM
2 | COc1ccc2nc(C)cc(Sc3nc4ccccc4s3)c2c1 | 1.79 µM | 8.19 µM | 1.14 µM | 3.15 µM | 1.45 µM | 11.1 µM | 0.385 µM | 5.43 µM | 0.533 µM | 2.63 µM | 0.562 µM | 3.28 µM | 1.89 µM | 7.71 µM | 1 µM | 3.06 µM | 0.993 µM | > 21.2 µM | 1.19 µM | 4.75 µM
3 | COc1cc(S(=O)(=O)Nc2nc(-c3ccc(N4C(=O)C(C)SC4c4ccccc4O)cc3)cs2)ccc1Cl (stereo not drawn) | 49.5 µM | > 100 µM | 28.6 µM | > 100 µM | 49 µM | > 100 µM | 37.2 µM | > 100 µM | 38 µM | > 100 µM | 64.9 µM | > 100 µM | 56.5 µM | > 100 µM | 32.8 µM | > 100 µM | 26.4 µM | > 100 µM | 50.6 µM | > 100 µM
4 | COc1ccc(CSC2=C(C#N)C(=O)NC3(CCCCC3)S2)cc1 | – | > 100 µM | – | > 100 µM | – | > 100 µM | – | > 100 µM | – | 19 µM | – | > 100 µM | – | > 100 µM | – | > 100 µM | – | > 100 µM | – | > 100 µM
5 | COc1cc(C2c3cc4c(cc3OC(O)C2C)OCO4)cc(OC)c1OC (stereo not drawn) | – | > 100 µM | – | > 69.9 µM | – | > 55.9 µM | – | 40.7 µM | – | 0.503 µM | – | > 100 µM | – | – | – | > 40.1 µM | – | > 79.4 µM | – | 23.3 µM
6 | Cc1ccc(S(=O)(=O)n2cc([C@@]3(O)C[C@H](CSC#N)OC3=O)c3ccccc32)cc1 | 13.2 µM | 28.2 µM | 5.07 µM | 17.7 µM | 2.8 µM | 18.1 µM | 4.62 µM | 19.3 µM | 3.5 µM | 12.2 µM | 12.7 µM | 26.5 µM | 11.9 µM | 55 µM | 12.8 µM | 32.7 µM | 15.6 µM | 43.3 µM | 58.8 µM | > 100 µM
7 | CC(C)C1(NC(=O)C2CC3c4cccc5[nH]cc(c45)CC3N(C)C2)OC2(O)C3CCCN3C(=O)C(Cc3ccccc3)N2C1=O (stereo not drawn) | – | > 100 µM | – | > 100 µM | – | > 100 µM | – | > 100 µM | – | 24.9 µM | – | > 100 µM | – | > 100 µM | – | > 100 µM | – | > 100 µM | – | –
